Assay [1] concerns the target BB7 (RNA-dependent RNA polymerase hepatitis C virus protein sequence derived from HCV replicon) (Hepatitis C virus genotype 1b, UniProt Q9WMX2). In words: Hepatitis C polymerase inhibition, BB7 sequence. Format: biochemical. The following applies: Table 1B.
Assay [2] concerns the target T1, NS5B from the BK strain (genotype 1b) (Hepatitis C virus genotype 1b, UniProt P26663).
T1 construct: NS5B from the BK strain (genotype 1b) is expressed in E. coli as a protein in which the 21 C-terminal amino acids are replaced; made in house; host or cells: E. coli
Kind of assay: Hepatitis C polymerase inhibition, NS5B BK strain, 33P-GTP filter assay. Type of assay: biochemical. The conditions noted are these: Table 1B; NS5B BK strain; read-out: BK IC50. The procedure, abridged: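 E. coli-expressed NS5B (BK, genotype 1b) with the 21 C-terminal residues replaced by a linker-His6 tag was preincubated with compound for 15 min at room temperature. It then extended a hairpin-primed heteropolymeric RNA (~3 nM, ~760 nt product) with α-[33P]-GTP for 2 h at 22–25° C. The reaction was stopped with EDTA, and incorporated label was counted on filters.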

The term IC50 denotes the concentration at which inhibition is half-maximal.

Chain of BB7 (RNA-dependent RNA polymerase hepatitis C virus protein sequence derived from HCV replicon) (Q9WMX2 2420-3010): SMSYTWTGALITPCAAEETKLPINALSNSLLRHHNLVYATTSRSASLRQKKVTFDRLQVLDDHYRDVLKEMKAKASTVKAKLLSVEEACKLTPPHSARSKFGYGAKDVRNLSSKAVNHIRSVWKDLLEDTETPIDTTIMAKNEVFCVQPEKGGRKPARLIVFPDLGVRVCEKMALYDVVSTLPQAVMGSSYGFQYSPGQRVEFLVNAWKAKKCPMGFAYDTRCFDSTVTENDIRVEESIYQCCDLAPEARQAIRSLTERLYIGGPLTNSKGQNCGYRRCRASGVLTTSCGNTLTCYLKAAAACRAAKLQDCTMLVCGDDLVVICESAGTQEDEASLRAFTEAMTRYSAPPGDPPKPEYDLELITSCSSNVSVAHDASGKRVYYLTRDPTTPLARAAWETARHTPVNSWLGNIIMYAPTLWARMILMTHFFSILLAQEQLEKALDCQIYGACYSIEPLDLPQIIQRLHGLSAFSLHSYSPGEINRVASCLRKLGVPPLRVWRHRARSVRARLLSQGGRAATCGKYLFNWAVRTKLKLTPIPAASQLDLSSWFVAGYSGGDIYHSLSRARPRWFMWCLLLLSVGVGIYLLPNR
T1 sequence (P26663 2420-2989): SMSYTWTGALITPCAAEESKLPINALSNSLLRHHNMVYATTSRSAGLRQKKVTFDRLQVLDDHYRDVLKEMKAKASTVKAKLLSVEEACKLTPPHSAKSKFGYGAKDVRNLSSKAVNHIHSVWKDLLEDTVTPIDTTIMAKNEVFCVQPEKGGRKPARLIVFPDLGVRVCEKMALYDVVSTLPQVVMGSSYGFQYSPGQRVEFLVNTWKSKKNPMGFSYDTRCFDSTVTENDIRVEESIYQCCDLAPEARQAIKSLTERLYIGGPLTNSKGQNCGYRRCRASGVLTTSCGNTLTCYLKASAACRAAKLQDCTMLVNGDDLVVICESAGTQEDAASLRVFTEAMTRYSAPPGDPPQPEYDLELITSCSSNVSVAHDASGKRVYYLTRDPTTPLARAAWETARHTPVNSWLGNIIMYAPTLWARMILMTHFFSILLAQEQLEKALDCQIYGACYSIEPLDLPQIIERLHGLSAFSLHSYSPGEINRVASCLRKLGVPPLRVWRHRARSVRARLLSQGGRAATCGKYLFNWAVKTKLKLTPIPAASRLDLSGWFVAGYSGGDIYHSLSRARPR

With `CCCCC1(CC(=O)O)OCCc2c1[nH]c1c(CC)ccc(C#N)c21` (centres unmarked) [Example 296, (1-butyl-5-cyano-8-ethyl-1,3,4,9-tetrahydropyrano[3,4-b]indol-1-yl)acetic acid], the IC50 in assay [1] stood at 6.3 µM; in assay [2], 7.2 µM.
Take `CCCC1(CC(=O)O)OCCc2c1[nH]c1c(C(C)C)ccc(C#N)c21` (centres unmarked) [Example 297, [5-cyano-8-(1-methylethyl)-1-propyl-1,3,4,9-tetrahydropyrano[3,4-b]indol-1-yl]acetic acid]: the figures for the IC50 in assay [1] and in assay [2] were 2.8 µM and 1.8 µM, respectively.
Regarding `CCCC1(CC(=O)O)OCCc2c1[nH]c1c(C)ccc([N+](=O)[O-])c21` (centres unmarked) [Example 298, (8-methyl-5-nitro-1-propyl-1,3,4,9-tetrahydropyrano[3,4-b]indol-1-yl)acetic acid], the IC50 in assay [1] stood at 0.5 µM; in assay [2], 0.3 µM.
In the same order, the values of `Cc1ccc([N+](=O)[O-])c2c3c([nH]c12)C(CC(=O)O)(C1CCC1)OCC3` (centres unmarked) [Example 299, (1-cyclobutyl-8-methyl-5-nitro-1,3,4,9-tetrahydropyrano[3,4-b]indol-1-yl]acetic acid] are 0.9 µM and 0.5 µM.
The corresponding values for `N#Cc1ccc(F)c2[nH]c3c(c12)CCOC3(CCC(F)(F)F)CC(=O)O` (centres unmarked) [Example 301, [5-cyano-8-fluoro-1-(3,3,3-trifluoropropyl)-1,3,4,9-tetrahydropyrano[3,4-b]indol-1-yl]acetic acid] are 11.3 µM and 5.4 µM.
In the same order, the values of `C=CCCC1(CC(=O)O)OCCc2c1[nH]c1c(F)ccc(C#N)c21` (centres unmarked) [Example 302, [1-(3-butenyl)-5-cyano-8-fluoro-1,3,4,9-tetrahydropyrano[3,4-b]indol-1-yl]acetic acid] are 18 µM and 4 µM.
For `COCC1(CC(=O)O)OCCc2c1[nH]c1c(F)ccc(C#N)c21` (centres unmarked) [Example 303, (5-cyano-8-fluoro-1-methoxymethyl-1,3,4,9-tetrahydropyrano[3,4-b]indol-1-yl)acetic acid], the IC50 in assay [1] and in assay [2] was above 30 µM throughout.
As to `COCCC1(CC(=O)O)OCCc2c1[nH]c1c(F)ccc(C#N)c21` (centres unmarked) [Example 304, [5-cyano-8-fluoro-1-(2-methoxyethyl)-1,3,4,9-tetrahydropyrano[3,4-b]indol-1-yl]acetic acid], the IC50 in assay [1] and in assay [2] was above 30 µM each time.
On to `CSCC1(CC(=O)O)OCCc2c1[nH]c1c(F)ccc(C#N)c21` (centres unmarked) [Example 305, (5-cyano-8-fluoro-1-methylthiomethyl-1,3,4,9-tetrahydropyrano[3,4-b]indol-1-yl)acetic acid], for which the IC50 in assay [1] and in assay [2] was above 30 µM throughout.
Regarding `N#Cc1ccc(F)c2[nH]c3c(c12)CCOC3(CC(=O)O)C1CC1` (centres unmarked) [Example 306, (5-cyano-1-cyclopropyl-8-fluoro-1,3,4,9-tetrahydropyrano[3,4-b]indol-1-yl)acetic acid], the IC50 in assay [1] and in assay [2] was above 30 µM in each case.
On to `N#Cc1ccc(F)c2[nH]c3c(c12)CCOC3(CC(=O)O)C1CCC1` (centres unmarked) [Example 307, (5-cyano-1-cyclobutyl-8-fluoro-1,3,4,9-tetrahydropyrano[3,4-b]indol-1-yl)acetic acid], for which the IC50 in assay [1] amounted to 9.6 µM; in assay [2] it was 5.8 µM.
With `N#Cc1ccc(F)c2[nH]c3c(c12)CCOC3(CC(=O)O)C1CCCC1` (centres unmarked) [Example 308, (5-cyano-1-cyclopentyl-8-fluoro-1,3,4,9-tetrahydropyrano[3,4-b]indol-1-yl)acetic acid], the IC50 in assay [1] and in assay [2] was above 30 µM each time.
For the compound `N#Cc1ccc(F)c2[nH]c3c(c12)CCOC3(CC(=O)O)CC1CCCC1` (centres unmarked) [Example 310, (5-cyano-1-cyclopentylmethyl-8-fluoro-1,3,4,9-tetrahydropyrano[3,4-b]indol-1-yl)acetic acid], the IC50 in assay [1] and in assay [2] was above 25 µM throughout.
Take `CC[C@H](C)[C@@]1(CC(=O)O)OCCc2c1[nH]c1c(F)ccc(C#N)c21` [Example 315, (1R,10S)-[5-cyano-8-fluoro-1-(1-methylpropyl)-1,3,4,9-tetrahydropyrano[3,4-b]indol-1-yl]acetic acid]: the IC50 stood at 2.1 µM in assay [1] and 0.4 µM in assay [2].
Regarding `CC[C@H](C)[C@]1(CC(=O)O)OCCc2c1[nH]c1c(F)ccc(C#N)c21` [Example 316, (1S,10S)-[5-cyano-8-fluoro-1-(1-methylpropyl)-1,3,4,9-tetrahydropyrano[3,4-b]indol-1-yl]acetic acid], the IC50 in assay [1] and in assay [2] was above 30 µM in each case.
Regarding `Cc1cc(F)c(C#N)c2c3c([nH]c12)C(CC(=O)O)(C1CCC1)OCC3` (centres unmarked) [Example 317, (5-cyano-1-cyclobutyl-6-fluoro-8-methyl-1,3,4,9-tetrahydropyrano[3,4-b]indol-1-yl)acetic acid], the IC50 in assay [1] was determined as 0.9 µM; in assay [2], 0.6 µM.
On to `CC[C@H](C)[C@@]1(CC(=O)O)OCCc2c1[nH]c1c(C)cc(F)c(C#N)c21` [Example 319, (1R,10S)-[5-cyano-6-fluoro-8-methyl-1-(1-methylpropyl)-1,3,4,9-tetrahydropyrano[3,4-b]indol-1-yl]acetic acid], for which the IC50 in assay [1] turned out to be 0.08 µM; in assay [2] it was 0.06 µM.
For `CC[C@H](C)[C@]1(CC(=O)O)OCCc2c1[nH]c1c(C)cc(F)c(C#N)c21` [Example 320, (1S,10S)-[5-cyano-6-fluoro-8-methyl-1-(1-methylpropyl)-1,3,4,9tetrahydropyrano[3,4-b]indol-1-yl]acetic acid], the IC50 in assay [1] was found to be 6 µM; in assay [2] it was 2.9 µM.
As for `CCCC1(CC(=O)O)OCCc2c1[nH]c1c(Cl)ccc(C#N)c21` (centres unmarked) [Example 321, (8-chloro-5-cyano-1-propyl-1,3,4,9-tetrahydropyrano[3,4-b]indol-1-yl)acetic acid], the IC50 is 0.6 µM in assay [1] and 0.3 µM in assay [2].
For `CCC[C@]1(CC(=O)O)OCCc2c1[nH]c1c(Cl)ccc(C#N)c21` [Example 322, (1R)-(8-chloro-5-cyano-1-propyl-1,3,4,9-tetrahydropyrano[3,4-b]indol-1-yl)acetic acid], the IC50 in assay [1] was 0.16 µM; in assay [2], 0.04 µM.
`CCC[C@@]1(CC(=O)O)OCCc2c1[nH]c1c(Cl)ccc(C#N)c21` [Example 323, (1S)-(8-chloro-5-cyano-1-propyl-1,3,4,9-tetrahydropyrano[3,4-b]indol-1-yl)acetic acid]: the figures for the IC50 in assay [1] and in assay [2] were 11 µM and 4.9 µM, respectively.
In the same order, the values of `CC[C@H](C)[C@@]1(CC(=O)O)OCCc2c1[nH]c1c(Cl)ccc(C#N)c21` [Example 325, (1R,10S)-[8-Chloro-5-cyano-1-(1-methylpropyl)-1,3,4,9-tetrahydropyrano[3,4-b]indol-1yl]acetic acid] are 0.19 µM and 0.08 µM.
For the compound `CC[C@H](C)[C@]1(CC(=O)O)OCCc2c1[nH]c1c(Cl)ccc(C#N)c21` [Example 326, (1S,10S)-[8-Chloro-5-cyano-1-(1-methylpropyl)-1,3,4,9-tetrahydropyrano[3,4-b]indol-1-yl]acetic acid], the IC50 is 9.4 µM in assay [1] and 6.5 µM in assay [2].
With `N#Cc1ccc(Cl)c2[nH]c3c(c12)CCOC3(CC(=O)O)C1CCC1` (centres unmarked) [Example 327, (8-chloro-5-cyano-1-cyclobutyl-1,3,4,9-tetrahydropyrano[3,4-b]indol-1-yl)acetic acid], the IC50 in assay [1] amounted to 1.7 µM; in assay [2] it was 0.8 µM.
On to `CCCC1(C(=O)O)OCCc2c1[nH]c1ccc(Cl)c(Cl)c21` (centres unmarked) [Example 328, (5,6-dichloro-1-propyl-1,3,4,9-tetrahydropyrano[3,4-b]indol-1-yl)carboxylic acid], for which the IC50 in assay [1] was determined as 3.9 µM; in assay [2] it was 4.3 µM.
The corresponding values for `CCCC1(C(=O)O)OCCc2c1[nH]c1c(Cl)ccc(Cl)c21` (centres unmarked) [Example 329, (5,8-dichloro-1-propyl-1,3,4,9-tetrahydropyrano[3,4-b]indol-1-yl)carboxylic acid] are 1.5 µM and 0.6 µM.
For the compound `CCCC1(C(=O)O)OCCc2c1[nH]c1c(C)ccc(Cl)c21` (centres unmarked) [Example 330, (5-chloro-8-methyl-1-propyl-1,3,4,9-tetrahydropyrano[3,4-b]indol-1-yl)carboxylic acid], the IC50 was determined as 8.4 µM in assay [1] and 1.6 µM in assay [2].
As to `CCCC1(C(=O)O)OCCc2c1[nH]c1c(Cl)ccc(C(F)(F)F)c21` (centres unmarked) [Example 331, (8-chloro-5-trifluoromethyl-1-propyl-1,3,4,9-tetrahydropyrano[3,4-b]indol-1-yl)carboxylic acid], the IC50 was 2.5 µM in assay [1] and 0.5 µM in assay [2].
On to `CCCC1(C(=O)O)OCCc2c1[nH]c1c(F)ccc(C(F)(F)F)c21` (centres unmarked) [Example 332, (8-fluoro-5-trifluoromethyl-1-propyl-1,3,4,9-tetrahydropyrano[3,4-b]indol-1-yl)carboxylic acid], for which the IC50 in assay [1] was found to be 14 µM; in assay [2], 6.4 µM.
For the compound `CCCC1(C(=O)O)OCCc2c1[nH]c1c(C)ccc(C(F)(F)F)c21` (centres unmarked) [Example 333, (5-trifluoromethyl-8-methyl-1-propyl-1,3,4,9-tetrahydropyrano[3,4-b]indol-1-yl)carboxylic acid], the IC50 is 7.6 µM in assay [1] and 1.3 µM in assay [2].
Turning to `CCCC1(C(=O)O)OCCc2c1[nH]c1c(C)ccc(C#N)c21` (centres unmarked) [Example 334, (5-cyano-8-methyl-1-propyl-1,3,4,9-tetrahydropyrano[3,4-b]indol-1-yl)carboxylic acid], the IC50 in assay [1] is 5 µM; in assay [2], 3 µM.

The values above are taken from patent publication US7217730B2, “Method for the use of pyranoindole derivatives to treat infection with Hepatitis C virus” (Wyeth, priority 2002, dated 2007).
